Key:
Experiment in all cases: Minimal inhibitory concentration (M.I.C.), agar dilution method
Settings in all cases: TSA, inoculum 10^7 /ml
[1] = tested on: S. aureus 1840; assay type: cell-based, Staphylococcus aureus
From the text: (§1) (a) Determination of minimal inhibitory concentrations (Tables 1 to 8):
(§2) Procedure: agar dilution method

[2] = tested on: S. aureus 209P; assay type: cell-based, Staphylococcus aureus
From the text: as §1, §2

[3] = tested on: E. coli NIHJ JC-2; assay type: cell-based, Escherichia coli
From the text: as §1, §2

[4] = tested on: E. coli T-7; assay type: cell-based, Escherichia coli
From the text: as §1, §2

[5] = tested on: E. coli 0-111; assay type: cell-based, Escherichia coli
From the text: The minimal inhibitory concentrations (M.I.C.) of some representative cephalosporin derivatives of this invention as produced by the procedures described in those examples and the minimal inhibitory concentrations of cephalothin [sodium 7-(2-thienylacetamido)-3-acetoxymethyl-3-cephem-4-carboxylate], cephaloridine [7-(2-thienylacetamido)-3-(1-pyridyl)methyl-3-cephem-4-carboxylic acid betaine] and cefazolin [sodium 7-(1H-tetrazol-1-yl)acetamido-3-(2-methyl-1,3,4-thiadiazol-5-yl)thiomethyl-3-cephem-4-carboxylate], which are among the clinically established and commercially available cephalosporins (as described, for example, in the New England Journal of Medicine 294, 24, 1976 and Journal of Pharmaceutical Science 64, 1899, 1975), both against various bacteria, as well as the therapeutic effects of some respresentative cephalosporin derivatives of this invention and of cephaloridine in infected mice, are shown in tables.
as §1, §2

[6] = tested on: K. pneumoniae DT; assay type: cell-based, Klebsiella pneumoniae
From the text: as §1, §2

[7] = tested on: K. pneumoniae GN 3835; assay type: cell-based, Klebsiella pneumoniae
From the text: as §1, §2

[8] = tested on: S. marcescens IFO 12648; assay type: cell-based, Serratia marcescens
From the text: as §1, §2

[9] = tested on: S. marcescens TN 24; assay type: cell-based, Serratia marcescens
From the text: as §1, §2

[10] = tested on: P. vulgaris GN 4413; assay type: cell-based, Proteus vulgaris
From the text: as §1, §2

[11] = tested on: P. vulgaris IFO 3988; assay type: cell-based, Proteus vulgaris
From the text: as §1, §2

[12] = tested on: P. mirabilis GN 4359; assay type: cell-based, Proteus mirabilis
From the text: as §1, §2

[13] = tested on: P. morganii IFO 3168; assay type: cell-based, Proteus morganii
From the text: as §1, §2

[14] = tested on: P. rettgeri GN4733; assay type: cell-based, Proteus rettgeri
From the text: as §1, §2

[15] = tested on: P. rettgeri TN 338; assay type: cell-based, Proteus rettgeri
From the text: as §1, §2

[16] = tested on: E. cloacae TN 1282; assay type: cell-based, Enterobacter cloacae
From the text: as §1, §2

[17] = tested on: C. freundii GN 1706; assay type: cell-based, Citrobacter freundii
From the text: as §1, §2

[18] = tested on: C. freundii GN 99; assay type: cell-based, Citrobacter freundii
From the text: as §1, §2

| Structure (SMILES) | minimal inhibitory concentration (M.I.C.) [1] | minimal inhibitory concentration (M.I.C.) [2] | minimal inhibitory concentration (M.I.C.) [3] | minimal inhibitory concentration (M.I.C.) [4] | minimal inhibitory concentration (M.I.C.) [5] | minimal inhibitory concentration (M.I.C.) [6] | minimal inhibitory concentration (M.I.C.) [7] | minimal inhibitory concentration (M.I.C.) [8] | minimal inhibitory concentration (M.I.C.) [9] | minimal inhibitory concentration (M.I.C.) [10] | minimal inhibitory concentration (M.I.C.) [11] | minimal inhibitory concentration (M.I.C.) [12] | minimal inhibitory concentration (M.I.C.) [13] | minimal inhibitory concentration (M.I.C.) [14] | minimal inhibitory concentration (M.I.C.) [15] | minimal inhibitory concentration (M.I.C.) [16] | minimal inhibitory concentration (M.I.C.) [17] | minimal inhibitory concentration (M.I.C.) [18] |
| --- | --- | --- | --- | --- | --- | --- | --- | --- | --- | --- | --- | --- | --- | --- | --- | --- | --- | --- |
| CCNC(=O)O/N=C(\C(=O)NC1C(=O)N2C(C(=O)O)=C(CSc3nnc(C)s3)CSC12)c1csc(=N)[nH]1 (stereo not drawn) [Example II - 10] | 1.56 | 0.78 | 0.78 | 3.13 | 0.2 | 0.2 | 0.78 | 3.13 | 1.56 | 12.5 | 0.39 | 0.78 | 0.39 | 0.78 | ≤ 0.05 | 3.13 | 0.78 | 0.39 |
| CCNC(=O)O/N=C(\C(=O)NC1C(=O)N2C(C(=O)O)=C(CSc3nnnn3C)CSC12)c1csc(=N)[nH]1 (stereo not drawn) [Example II - 9] | 3.13 | 1.56 | 0.39 | 3.13 | 0.05 | 0.1 | 0.78 | 3.13 | 3.13 | 25 | 0.2 | 0.39 | 1.56 | 0.2 | ≤ 0.012 | 6.25 | 0.78 | 0.2 |
| CCCNC(=O)O/N=C(\C(=O)NC1C(=O)N2C(C(=O)O)=C(C)CSC12)c1csc(=N)[nH]1 (stereo not drawn) [Example II - 15] | 12.5 | 12.5 | 6.25 | 25 | 3.13 | 3.13 | 6.25 | > 100 | > 100 | 50 | 12.5 | 3.13 | 50 | 0.39 | 0.1 | > 100 | 12.5 | 12.5 |
| CCCNC(=O)O/N=C(\C(=O)NC1C(=O)N2C(C(=O)O)=C(CSc3nnnn3C)CSC12)c1csc(=N)[nH]1 (stereo not drawn) [Example II - 14] | 3.13 | 1.56 | 0.39 | 3.13 | 0.024 | 0.1 | 0.39 | 3.13 | 3.13 | 12.5 | 0.1 | 0.39 | 0.2 | 0.2 | ≤ 0.012 | 3.13 | 0.39 | 0.2 |
| CNC(=O)O/N=C(\C(=O)NC1C(=O)N2C(C(=O)O)=C(CSc3nnc(C)s3)CSC12)c1csc(=N)[nH]1 (stereo not drawn) [Example II - 5, sodium 7-[2-(2-imino-4-thiazolin-4-yl)-2-methylcarbamoyloximinoacetamido]-3-(2-methyl-1,3,4-thiadiazol-5-yl)thiomethyl-3-cephem-4-carboxylate (syn-isomer)] | 3.13 | 3.13 | 0.39 | 3.13 | 0.1 | 0.1 | 0.78 | 3.13 | 0.78 | 12.5 | 0.39 | 0.78 | 0.39 | 0.78 | ≤ 0.05 | 1.56 | 1.56 | 0.39 |
| CCCCNC(=O)O/N=C(\C(=O)NC1C(=O)N2C(C(=O)O)=C(COC(C)=O)CSC12)c1csc(=N)[nH]1 (stereo not drawn) [Example II - 20] | 1.56 | 1.56 | 0.1 | 3.13 | 0.024 | 0.05 | 0.39 | 6.25 | 12.5 | 12.5 | 0.2 | 0.1 | 0.39 | 0.05 | ≤ 0.012 | 6.25 | 0.39 | 0.39 |
| CNC(=O)O/N=C(\C(=O)NC1C(=O)N2C(C(=O)O)=C(CSc3nnnn3CCN(C)C)CSC12)c1csc(=N)[nH]1 (stereo not drawn) [Example IV - 3, 7-[2-(2-imino-4-thiazolin-4-yl)-2-methylcarbamoyloximinoacetamido]-3-[1-(2-dimethylammonium)ethyl-1H-tetrazol-5-yl]thiomethyl-3-cephem-4-carboxylate (syn-isomer)] | 3.13 | 1.56 | 0.39 | 3.13 | ≤ 0.2 | ≤ 0.2 | 0.39 | 6.25 | 6.25 | 100 | 0.39 | 0.39 | 0.39 | 0.39 | ≤ 0.2 | 1.56 | 0.78 | ≤ 0.2 |
| CNC(=O)O/N=C(\C(=O)NC1C(=O)N2C(C(=O)O)=C(CSc3nnc(C)o3)CSC12)c1csc(=N)[nH]1 (stereo not drawn) [Example IV - 10] | 3.13 | 1.56 | 0.39 | 6.25 | ≤ 0.2 | ≤ 0.2 | 0.78 | 6.25 | 6.25 | 25 | 0.39 | 0.39 | 0.39 | 0.78 | ≤ 0.2 | 3.13 | 0.78 | 0.39 |

Source: US4200575A, “7[(2-Thiazolyl)-2-(oxoimino)acetamido]cephalosporin derivatives” (Takeda Chemical Industries, Ltd., priority 1977, dated 1980)
